Activity calls are given as the source filed them. The rule behind the calls is not given here.
Tests used:
HUVEC [1] = assay: Cytotoxicity against HUVEC assessed as LDH release at 10-1000 ug/ml after 2 hrs; assay type: cell-based; settings: human
HUVEC [2] = assay: Antiinflammatory activity in HUVEC assessed as inhibition of TNF-alpha-induced E-selection expression at 10-1000 ug/ml after 2 hrs by ELISA; assay type: functional, cell-based; settings: Homo sapiens
HUVEC [3] = assay: Antiinflammatory activity in HUVEC assessed as inhibition of TNF-alpha-induced E-selection expression after 2 hrs by ELISA; assay type: functional, cell-based; settings: Homo sapiens

SMILES | Activity (HUVEC [1]) | inhibition (HUVEC [2]) | IC50 (HUVEC [3]) [µM]
COC(=O)C1=CO[C@@H](O[C@@H]2O[C@H](CO)[C@@H](O)[C@H](O)[C@H]2O)[C@@H]2[C@H](C)O[C@@H](OC)C[C@H]12 | Non-toxic | inactive | –
C[C@]1(OC(=O)/C=C/c2ccccc2)C[C@@H](O)[C@]2(O)C=CO[C@@H](O[C@@H]3O[C@H](CO)[C@@H](O)[C@H](O)[C@H]3O)[C@@H]21 [HARPAGOSIDE] | – | – | 88.2
COC(=O)C1=CO[C@@H](O[C@@H]2O[C@H](CO)[C@@H](O)[C@H](O)[C@H]2O)[C@@H]2[C@H](C)O[C@@H](O)C[C@H]12 [MORRONISIDE] | Non-toxic | inactive | –

Source: ChEMBL document CHEMBL1208764, “Morroniside cinnamic acid conjugate as an anti-inflammatory agent” (Bioorg Med Chem Lett, 2010)
